system: RSV infection; assay: not given; details: intramuscularly at 15 mg/kg once a month for the duration of RSV season, selected infants; cited from earlier work

Molecule	reduction of hospitalization rate caused by RSV infection
palivizumab: a humanized monoclonal antibody against RSV fusion (F) protein approved for prophylaxis in high-risk infants	45-55%

system: RSV Long strain (ATCC, catalog number: VR-26); assay: Viral cytopathic effect (CPE) assay, anti-RSV activity; assay type: cell-based; details: human respiratory syncytial virus, 144 h, 6 days, cell viability by Cell Counting kit-8
Method: Viral cytopathic effect (CPE) assay: To measure anti-RSV activity of compounds, 96-well plates are seeded with 6×10^3 cells per well in Dulbecco's modified Eagle's medium (DMEM) containing 10% fetal bovine serum (FBS). Cells are infected the next day with sufficient RSV Long strain (ATCC, catalog number: VR-26) to produce an approximately 80-90% cytopathic effect after 6 days, in the presence of serial half-log diluted compound in a total volume of 200 μL per well. The viability of cells is assessed after 6 days using Cell Counting kit-8 (Dojindo Molecular Technologies). The absorbance at 450 nm and referenced at 630 nm is measured to determine 50% effective concentration (EC50).

EC50 [µM]	Molecule
0.897	NCC1(Nc2nc(N3CCS(=O)(=O)c4ccccc4C3)nc3ccsc23)COC1 [Example 2-2, N-[3-(aminomethyl)oxetan-3-yl]-2-(1,1-dioxido-2,3-dihydro-1,4-benzothiazepin-4(5H)-yl)thieno[3,2-d]pyrimidin-4-amine]
0.073	Cc1cc2nc(N3CCS(=O)(=O)c4ccccc4C3)nc(NCCCN)c2s1 [Example 1-14, N-[2-(1,1-Dioxido-2,3-dihydro-1,4-benzothiazepin-4(5H)-yl)-6-methylthieno[3,2-d]pyrimidin-4-yl]propane-1,3-diamine]
0.076	NCCCNc1nc(N2CCS(=O)(=O)c3ccccc3C2)nc2ccsc12 [Example 1-15, N-[2-(1,1-Dioxido-2,3-dihydro-1,4-benzothiazepin-4(5H)-yl)thieno[3,2-d]pyrimidin-4-yl]propane-1,3-diamine]
1.35	Cc1cc2nc(N3CCOc4ccccc4C3)nc(NCCCN)c2s1 [Example 1-11, N-[2-(2,3-Dihydro-1,4-benzoxazepin-4(5H)-yl)-6-methylthieno[3,2-d]pyrimidin-4-yl]propane-1,3-diamine]
0.068	NC1(CNc2nc(N3CC[S@@+]([O-])c4ccccc4C3)nc3ccsc23)COC1 [Example 2-3, N-[(3-Aminooxetan-3-yl)methyl]-2-[(1R)-1-oxido-2,3-dihydro-1,4-benzothiazepin-4(5H)-yl]thieno[3,2-d]pyrimidin-4-amine]
0.007	NC1(CNc2nc(N3CCS(=O)(=O)c4ccccc4C3)nc3ccsc23)COC1 [Example 2-1, N-[(3-Aminooxetan-3-yl)methyl]-2-(1,1-dioxido-2,3-dihydro-1,4-benzothiazepin-4(5H)-yl)thieno[3,2-d]pyrimidin-4-amine]
1.44	Cc1cc2nc(N3CCCc4ccccc4C3)nc(NCCCN)c2s1 [Example 1-13, N-[6-Methyl-2-(1,3,4,5-tetrahydro-2H-2-benzazepin-2-yl)thieno[3,2-d]pyrimidin-4-yl]propane-1,3-diamine]
2.21	NCCCNc1nc(N2CCOc3ccccc3C2)nc2ccsc12 [Example 1-6, N-[2-(2,3-Dihydro-1,4-benzoxazepin-4(5H)-yl)thieno[3,2-d]pyrimidin-4-yl]propane-1,3-diamine]
0.022	NCC1(CNc2nc(N3CCC(F)(F)c4ccccc4C3)nc3ccsc23)COC1 [Example 1-8, N-{[3-(Aminomethyl)oxetan-3-yl]methyl}-2-(5,5-difluoro-1,3,4,5-tetrahydro-2H-2-benzazepin-2-yl)thieno[3,2-d]pyrimidin-4-amine]
0.03	Cc1cc2nc(N3CC[S+]([O-])c4ccccc4C3)nc(NC3CNC[C@H]3F)c2s1 (mixture of isomers) [Example 4-1, N—[trans-(±)-4-Fluoropyrrolidin-3-yl]-6-methyl-2-(1-oxido-2,3-dihydro-1,4-benzothiazepin-4(5H)-yl)thieno[3,2-d]pyrimidin-4-amine]
0.255	NCCCNc1nc(N2CC[S+]([O-])c3ccccc3C2)nc2ccsc12 (centres unmarked) [Example 1-2, N-[2-(1-Oxido-2,3-dihydro-1,4-benzothiazepin-4(5H)-yl)thieno[3,2-d]pyrimidin-4-yl]propane-1,3-diamine]
0.676	Cc1cc2nc(N3CC[S+]([O-])c4ccccc4C3)nc(NC3CCNC3)c2s1 (centres unmarked) [Example 4-2, 6-Methyl-2-(1-oxido-2,3-dihydro-1,4-benzothiazepin-4(5H)-yl)-N-(pyrrolidin-3-yl)thieno[3,2-d]pyrimidin-4-amine]
0.003	NC1(CNc2nc(N3CC[S@+]([O-])c4ccccc4C3)nc3ccsc23)COC1 [Example 2-4, N-[(3-aminooxetan-3-yl)methyl]-2-[(1S)-1-oxido-2,3-dihydro-1,4-benzothiazepin-4(5H)-yl]thieno[3,2-d]pyrimidin-4-amine]
0.215	NCC(F)(F)CNc1nc(N2CCS(=O)(=O)c3ccccc3C2)nc2ccsc12 [Example 1-1, N-[2-(1,1-Dioxido-2,3-dihydro-1,4-benzothiazepin-4(5H)-yl)thieno[3,2-d]pyrimidin-4-yl]-2,2-difluoropropane-1,3-diamine]
0.086	Cc1cc2nc(N3CC[S+]([O-])c4ccccc4C3)nc(NCCN)c2s1 (centres unmarked) [Example 3-3, N-[6-Methyl-2-(1-oxido-2,3-dihydro-1,4-benzothiazepin-4(5H)-yl)thieno[3,2-d]pyrimidin-4-yl]ethane-1,2-diamine]
0.384	NCCCNc1nc(N2CCSc3ccccc3C2)nc2ccsc12 [Example 1-5, N-[2-(2,3-Dihydro-1,4-benzothiazepin-4(5H)-yl)thieno[3,2-d]pyrimidin-4-yl]propane-1,3-diamine]
0.232	Cc1cc2nc(N3CC[S+]([O-])c4ccccc4C3)nc(NCCCN)c2s1 (centres unmarked) [Example 3-5, N-[6-Methyl-2-(1-oxido-2,3-dihydro-1,4-benzothiazepin-4(5H)-yl)thieno[3,2-d]pyrimidin-4-yl]propane-1,3-diamine]
0.735	Cc1cc2nc(N3CCSc4ccccc4C3)nc(NCCCN)c2s1 [Example 1-10, N-[2-(2,3-Dihydro-1,4-benzothiazepin-4(5H)-yl)-6-methylthieno[3,2-d]pyrimidin-4-yl]propane-1,3-diamine]
0.667	NCCCNc1nc(N2CCCc3ccccc3C2)nc2ccsc12 [Example 1-9, N-[2-(1,3,4,5-Tetrahydro-2H-2-benzazepin-2-yl)thieno[3,2-d]pyrimidin-4-yl]propane-1,3-diamine]
1.01	Cc1cc2nc(N3CCC(F)(F)c4ccccc4C3)nc(NCCCN)c2s1 [Example 1-12, N-[2-(5,5-Difluoro-1,3,4,5-tetrahydro-2H-2-benzazepin-2-yl)-6-methylthieno[3,2-d]pyrimidin-4-yl]propane-1,3-diamine]
0.006	Cc1cc2nc(N3CC[S+]([O-])c4ccccc4C3)nc(NCC3(CN)COC3)c2s1 (centres unmarked) [Example 3-4, N-{[3-(Aminomethyl)oxetan-3-yl]methyl}-6-methyl-2-(1-oxido-2,3-dihydro-1,4-benzothiazepin-4(5H)-yl)thieno[3,2-d]pyrimidin-4-amine]
9.47	NCCCNc1nc(N2CCNc3ccccc3C2)nc2ccsc12 [Example 1-4, N-[2-(1,2,3,5-Tetrahydro-4H-1,4-benzodiazepin-4-yl)thieno[3,2-d]pyrimidin-4-yl]propane-1,3-diamine]
3.12	Cc1cc2nc(N3CCNc4ccccc4C3)nc(NCCCN)c2s1 [Example 1-3, N-[6-Methyl-2-(1,2,3,5-tetrahydro-4H-1,4-benzodiazepin-4-yl)thieno[3,2-d]pyrimidin-4-yl]propane-1,3-diamine]
0.468	Cc1cc2nc(N3CC[S+]([O-])c4ccccc4C3)nc(NCC(F)CN)c2s1 (centres unmarked) [Example 3-2, 2-Fluoro-N-[6-methyl-2-(1-oxido-2,3-dihydro-1,4-benzothiazepin-4(5H)-yl)thieno[3,2-d]pyrimidin-4-yl]propane-1,3-diamine]
0.026	Cc1cc2nc(N3CC[S+]([O-])c4ccccc4C3)nc(NCC3(N)COC3)c2s1 (centres unmarked) [Example 3-1, N-[(3-Aminooxetan-3-yl)methyl]-6-methyl-2-(1-oxido-2,3-dihydro-1,4-benzothiazepin-4(5H)-yl)thieno[3,2-d]pyrimidin-4-amine]
0.669	NCCCNc1nc(N2CCC(F)(F)c3ccccc3C2)nc2ccsc12 [Example 1-7, N-[2-(5,5-Difluoro-1,3,4,5-tetrahydro-2H-2-benzazepin-2-yl)thieno[3,2-d]pyrimidin-4-yl]propane-1,3-diamine]

system: established RSV infection; assay: not given; details: in vivo; cited from earlier work

Molecule	efficacy in treatment of established RSV infection
palivizumab: a humanized monoclonal antibody against RSV fusion (F) protein approved for prophylaxis in high-risk infants	not effective

system: RSV; assay: not given; details: Phase III clinical trials; cited from earlier work

Molecule	benefit over palivizumab
motavizumab: A newer version monoclonal antibody designed as potential replacement of palivizumab	failed to show additional benefit over palivizumab

Source: patent publication US8604019B2, “Compounds for the treatment and prophylaxis of respiratory syncytial virus disease” (Hoffman-La Roche Inc., priority 2011, dated 2013)
